Some test systems named below: LOX IMVI melanoma; MALME-3M melanoma; HOP-92 NSCLC; SF-295 CNS; IGROV1 ovarian; MCF7 breast; OVCAR-4 ovarian; SF-268 CNS; HOP-62 NSCLC; M14 melanoma.
Holding throughout (assay): NCI-60 cell line screen, 48 h

The structures appear in SMILES notation.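 Five concentrations, 48 hours, 96-well plates. Abbreviation: GI50, concentration required for 50% inhibition of growth. The concentration for full growth arrest is given as TGI.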 A value given as a limit tells only on which side of the number the result lay.

As to `CC1(C)CCC(CN2CCN(c3ccc(C(=O)NS(=O)(=O)c4ccc(NCC5CCOCC5)c([N+](=O)[O-])c4)c(Oc4cnc5[nH]ccc5c4)c3)CC2)=C(c2ccc(Cl)cc2)C1`, the GI50 is 2.21 µM in the experiment with LOX IMVI melanoma; 1.82 µM in the experiment on MALME-3M melanoma; 1.29 µM in the experiment with HOP-92 NSCLC; 2.35 µM with SF-295 CNS; 2.98 µM with IGROV1 ovarian; 3.16 µM in the experiment on MCF7 breast. Further, the GI50 in the experiment with OVCAR-4 ovarian is 3.53 µM; in the experiment on SF-268 CNS, 3.58 µM; in the experiment on HOP-62 NSCLC, 4.1 µM; in the experiment on M14 melanoma, 2.54 µM. The TGI in the experiment with LOX IMVI melanoma stood at 4.85 µM; with MALME-3M melanoma it was 3.64 µM; in the experiment with HOP-92 NSCLC, 2.77 µM; with SF-295 CNS it was 7.42 µM; in the experiment with IGROV1 ovarian, 9.57 µM; in the experiment with MCF7 breast, 14.5 µM. Besides, the TGI with OVCAR-4 ovarian turned out to be 20.4 µM; in the experiment with SF-268 CNS it was 17.8 µM; in the experiment with HOP-62 NSCLC, 15.8 µM; in the experiment on M14 melanoma, 7.07 µM.
As for `CCN(CC)c1ccc(/C=C/C2=[N+](C)c3ccccc3C2(C)C)cc1`, the GI50 is 0.251 µM in the experiment on LOX IMVI melanoma; 0.29 µM in the experiment with MALME-3M melanoma; 0.766 µM in the experiment on HOP-92 NSCLC; 0.374 µM in the experiment on SF-295 CNS; 0.709 µM in the experiment on IGROV1 ovarian; 0.307 µM with MCF7 breast. In addition, the GI50 is 0.292 µM with OVCAR-4 ovarian, 0.627 µM in the experiment with SF-268 CNS, 0.697 µM with HOP-62 NSCLC and 0.581 µM in the experiment on M14 melanoma. The TGI in the experiment with LOX IMVI melanoma was 23 µM; with MALME-3M melanoma, 3.29 µM; in the experiment with HOP-92 NSCLC, more than 35.2 µM; with SF-295 CNS it was 22.2 µM; in the experiment on IGROV1 ovarian it was more than 85.6 µM; with MCF7 breast, 18.5 µM. For the same compound, the TGI in the experiment with OVCAR-4 ovarian was found to be 29.7 µM; in the experiment on SF-268 CNS, 33.2 µM; with HOP-62 NSCLC it was 16.3 µM; in the experiment on M14 melanoma, 19.5 µM.
Consider `C=C(CNCCc1ccc(O)cc1)[C@@H]1CC[C@]2(CO)CC[C@]3(C)[C@H](CC[C@@H]4[C@@]5(C)CCC(NCCO)C(C)(C)[C@@H]5CC[C@]43C)[C@@H]12` (stereo not given in full), for which the GI50 with LOX IMVI melanoma is 1.39 µM; with MALME-3M melanoma, 1.54 µM; with HOP-92 NSCLC it was 1.09 µM; with SF-295 CNS it was 1.72 µM; in the experiment on IGROV1 ovarian, 1.94 µM; in the experiment with MCF7 breast it was 0.4 µM. For the same compound, the GI50 in the experiment on OVCAR-4 ovarian was 1.4 µM; in the experiment on SF-268 CNS it was 1.57 µM; with HOP-62 NSCLC it was 1.64 µM; in the experiment on M14 melanoma, 1.61 µM. The TGI is 2.88 µM with LOX IMVI melanoma; 3.08 µM with MALME-3M melanoma; 2.41 µM in the experiment on HOP-92 NSCLC; 3.34 µM in the experiment with SF-295 CNS; 3.9 µM with IGROV1 ovarian; 1.76 µM in the experiment on MCF7 breast. In addition, the TGI with OVCAR-4 ovarian came out at 3.17 µM; in the experiment on SF-268 CNS, 3.23 µM; in the experiment on HOP-62 NSCLC, 3.23 µM; in the experiment with M14 melanoma, 3.13 µM.
Regarding `CCN1C(=O)N(CC)C2C1NN=c1s/c(=C\c3ccc([N+](=O)[O-])cc3)c(=O)n12` (stereo not given), the GI50 in the experiment with LOX IMVI melanoma is 0.507 µM; in the experiment with MALME-3M melanoma, 0.587 µM; in the experiment on HOP-92 NSCLC, 2.19 µM; in the experiment on SF-295 CNS, 0.371 µM; in the experiment on IGROV1 ovarian, 0.977 µM; in the experiment on MCF7 breast, 0.315 µM. Further, the GI50 in the experiment on OVCAR-4 ovarian is 0.744 µM; in the experiment with SF-268 CNS, 0.895 µM; in the experiment with HOP-62 NSCLC it was 0.731 µM; with M14 melanoma, 0.401 µM. Also, the TGI in the experiment on LOX IMVI melanoma is more than 100 µM; in the experiment with MALME-3M melanoma, more than 100 µM; in the experiment with HOP-92 NSCLC it was more than 100 µM; in the experiment with SF-295 CNS it was more than 52.2 µM; in the experiment on IGROV1 ovarian, more than 32.9 µM; with MCF7 breast it was more than 100 µM. For the same compound, the TGI was 10.5 µM in the experiment with OVCAR-4 ovarian, more than 67.7 µM with SF-268 CNS, more than 59.8 µM in the experiment on HOP-62 NSCLC and more than 43 µM with M14 melanoma.
`CC1OC(OC2C(OC3CCC4(C)C(CCC5(C)C4CC=C4C6CC(C)(C)CCC6(CO)C(O)CC45C)C3(C)C)OC(C(=O)O)C(OC3OC(COC4OC(CO)C(O)C(O)C4O)C(O)C(O)C3O)C2O)C(O)C(O)C1O` (stereo not given): the GI50 with LOX IMVI melanoma was 10.7 µM; in the experiment on MALME-3M melanoma, 7.58 µM; in the experiment on HOP-92 NSCLC it was 3.56 µM; in the experiment with SF-295 CNS, 8.13 µM; in the experiment with IGROV1 ovarian, 7.1 µM; in the experiment with MCF7 breast, 11.4 µM. In addition, the GI50 is 3.1 µM in the experiment with OVCAR-4 ovarian, 13.1 µM in the experiment on SF-268 CNS, 14.8 µM in the experiment on HOP-62 NSCLC and 2.5 µM with M14 melanoma. Besides, the TGI in the experiment with LOX IMVI melanoma stood at 21.6 µM; in the experiment on MALME-3M melanoma, 18.8 µM; in the experiment on HOP-92 NSCLC, 15.3 µM; in the experiment on SF-295 CNS it was 20.2 µM; in the experiment on IGROV1 ovarian, 17.5 µM; in the experiment on MCF7 breast, 24.2 µM. Moreover, the TGI in the experiment with OVCAR-4 ovarian was determined as 12.8 µM; in the experiment on SF-268 CNS it was 27.1 µM; in the experiment with HOP-62 NSCLC it was 30.9 µM; in the experiment with M14 melanoma it was 9.24 µM.

The values above are taken from PubChem BioAssay (NCI).
